Where no end group is shown, it is not given here. [ ]: non-standard residue; d: D form. hCit = NC(=O)NCCCC[C@H](N)C(=O)O
T1: HLA-DP4 (Homo sapiens, UniProt P04440+P20036)
T1 sequence (P20036 29-260): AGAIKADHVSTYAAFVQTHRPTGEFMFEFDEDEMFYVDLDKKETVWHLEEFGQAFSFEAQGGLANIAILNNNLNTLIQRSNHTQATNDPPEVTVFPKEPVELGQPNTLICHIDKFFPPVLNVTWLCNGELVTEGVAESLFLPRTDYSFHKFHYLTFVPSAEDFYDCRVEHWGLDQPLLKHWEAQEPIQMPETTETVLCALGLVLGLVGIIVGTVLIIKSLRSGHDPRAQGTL
T1 sequence (P04440 30-258): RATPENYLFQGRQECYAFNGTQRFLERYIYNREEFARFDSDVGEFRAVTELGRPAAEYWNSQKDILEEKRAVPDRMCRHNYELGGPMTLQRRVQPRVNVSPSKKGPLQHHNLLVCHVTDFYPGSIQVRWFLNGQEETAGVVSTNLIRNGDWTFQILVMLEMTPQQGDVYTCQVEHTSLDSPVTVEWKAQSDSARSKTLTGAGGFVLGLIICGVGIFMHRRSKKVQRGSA


Assays:
HLA-DR4 mice = assay: Ex vivo IFNγ ELISpot after peptide immunisation, HLA-DR4 mice; format: in vivo, mouse
Experimental: (§1) C57BL/6 mice (Charles River, UK), HLA-DR4 mice (Model #4149, Taconic, USA), HLA-A2/DR1 (HHDII/DR1, Pasteur Institute), HLA-A2.1+/+HLA-DP4+/+hCD4+/+ (HLA-HHDII/DP4) transgenic mice (EM: 02221, European Mouse Mutant Archive) described in patent WO2013/017545 A1 (EMMA repository, France) were used, aged between 8 and 12 weeks. Peptides were dissolved in PBS to 1 mg/ml and then emulsified (a series of dilutions) with CpG ODN 1826 and MPLA 6 μg/mouse of each (Invivogen, UK). Peptides (25 μg/mouse) were injected subcutaneously at the base of the tail. Mice were immunised at days 1, 7 and 14 for peptide immunisation. Spleens were removed for analysis at day 21 unless stated otherwise.
(§2) ELISpot assays were performed using murine IFNγ, IL-17 and IL-10 capture and detection reagents according to the manufacturer's instructions (Mabtech, Sweden). In brief, anti-IFNγ, IL-17 and IL-10 specific antibodies were coated onto wells of 96-well Immobilin-P plate. Synthetic peptides (at various concentrations) and 5×10^5 per well splenocytes were added to wells of the plate in quadruplicate Tumour target cells were added where relevant at 5×10^4/well in triplicate and plates incubated for 40 hrs at 37° C. After incubation, captured IFNγ, IL-10 and IL-17 were detected by biotinylated anti-IFNγ, IL-10 and IL-17 antibodies and developed with a streptavidin alkaline phosphatase and chromogenic substrate. Lipopolysaccharide (LPS; 5 μg/ml) was used as a positive control. For MHC blocking studies, anti-CD4 blocking antibody (GK1.5) or anti-CD4 blocking antibody (RPA-T4) for HHDII/DP4 mice which express human CD4 and anti-CD8 blocking antibody (2.43) from Bioxcell were used at 20 μg/ml. Spots were analysed and counted using an automated plate reader (Cellular Technologies Ltd).
(§3) Screening was performed to identify potential homocitrullinated vimentin epitopes in mice. Mice were immunised with pools of homocitrullinated peptides. […] Each pool was administered as three immunisations containing 20 μg of each peptide and CpG/MPLA as an adjuvant on day 1, 8 and 15. On day 21 the mice were culled and the immune responses to each peptide within the immunising pool were assessed by ex vivo ELISpot. Given that different mouse strains have different MHC repertoires a number of strains were used for screening. Peptide responses were assessed in transgenic strains expressing human DR4 or HHDII/DR1 in a C57BL/6 background (see methods).

HLA-HHDII/DR1 mice = assay: Ex vivo IFNγ ELISpot after peptide immunisation, HHDII/DR1 mice; format: in vivo, mouse
Experimental: as §1, §2
as §3, with “methods). […]” for “methods).”
The five selected homocitrullinated Cyk8 peptides were also screened in HHDII/DR1 transgenic mice. […] Response to Cyk8 112Hcit peptide in the HHDII/DR1 mice was lost in the presence of CD8 blocking antibody but less effect of the CD4 blocking antibody was seen (FIG. 12b). […] Responses to homocitrullinated Cyk8 peptides show both CD4 and CD8 mediated responses.

B16F1 HHDII/DR1 tumours = assay: Tumour therapy, B16F1 HHDII/DR1 tumour in HHDII/DR1 mice; format: in vivo, mouse; settings: peptide with CpG/MPLA days 4, 11, 18
Source text: To determine if the epitopes that stimulate T cell responses are presented on MHC-II within the tumour environment, our homocitrullinated peptides were checked for tumour therapy in B16 tumour models. Mice were implanted with tumour cells on day 1 and then immunised with peptides and CpG/MPLA on days 4, 11 and 18.
HHDII/DR1 (FIG. 19a) or DR4 (FIG. 19b) transgenic mice were challenged with B16F1 HHDII/DR1 or B16F1 DR4 tumours respectively prior to immunisation with vimentin 116-135Hcit peptide and tumour growth and survival were monitored.
HHDII/DR1 mice were implanted with B16HHDII/DR1 tumour cells on day 1 and then immunised with Cyk8 371Hcit, 112hcit or both peptides and CpG/MPLA on days 4, 11 and 18.

HLA-DP4 = target: T1, HLA-DP4; assay: DP4 competition assay with biotinylated Hep B peptide; settings: inhibition of biotinylated Hep B binding to HLA-DP4; 5 fold excess test peptide, equal amount for unlabelled Hep B
Experimental: 2×T175 gave 2.5×10^7 B16 HHDII/DP4 (B16F1 β2M H2Ab1 dKO A35 HHDII/DP4 H7/2E9/F9 p14) cells. This was enough for 5 preps using the following protocol with Mem-PER™ Plus Membrane Protein Extraction Kit (thermo-scientific cat #89842).
5×10^6 cells were resuspended in the growth media by scraping the cells off the surface of the plate with a cell scraper and then centrifuged at 300 g for 5 mins. The cell pellet was washed with 3 ml of Cell Wash Solution and centrifuged at 300 g for 5 mins. The supernatant was removed and discarded. The cells were resuspended in 1.5 ml of Cell Wash Solution and transfer to a 2 ml centrifuge tube and centrifuged at 300 g for 5 mins. The supernatant was discarded. 0.75 ml of permeabilization buffer was added to the cell pellet and vortexed briefly to obtain a homogeneous cell suspension and incubated for 10 mins at 4° C. with constant mixing. The permeabilized cells were centrifuge for 15 mins at 16,000g before carefully removing the supernatant containing cytosolic proteins and transfering to a new tube. 0.5 ml of solubilization buffer was added to the pellet and resuspend prior to incubating at 4° C. for 30 minutes with constant mixing prior to centrifugation at 16,000g for 15 mins at 4° C. The supernatant containing solubilized membrane and membrane-associated proteins was transfered to a new tube. Aliquots were frozen at −80° C. for future use. 12.5 μl Halt™ Protease and Phosphatase Inhibitor Cocktail, EDTA-free (100X) thermo-scientific (Catalog number 78445) was added prior to freezing.
High binding plates were coated with streptavidin (Sigma S4762 at 1 mg/ml) 1/500 in PBS and incubated overnight at 4° C. The plates were blocked with 1% BSA in PBS for 4 hrs at room temp and washed 3×PBS/0.5% Tweenx. 450 μl of cell prep lysate (B16F1 B16 HHDII/DP4 H7/2E9/F9) was mixed with 50 μg test peptide (see below) or 10 μg of unlabelled Hep B peptide for 30 mins. 10 μg biotinylated Hep B peptide was added & incubated for 4 hrs at 37° C.:
Lysate/peptide mix was added to the plates at 100 μl/well and incubated for 4 hrs at room temperature. Plates were washed 3× with PBS/0.5% Tween. 100 μl per well of Leinco anti-Human HLA-DP4 clone B7/21 #H260 1 mg/ml at 1/500 dilution in 1% BSA/PBS was added and incubated for 1 hr at room temperature prior to washing 3× PBS/0.5% Tween. Goat anti-mouse lgG3-HRP at 0.5 mg/ml 1/500 100 μl per well (Invitrogen #M32607) diluted in 1% BSA/PBS) was added for 1 hr at room temperature prior to washing and adding 150 μl of TMB substrate to each well. The reaction was stopped with 50 μl of 2N H2SO4 and plates read plate at 450 nm.
To ensure that the biotinylation of Hep B had not interfered with its binding, HLA-DP4 was incubated with equal amounts of biotinylated and unlabelled Hep B peptide. Unlabelled peptide competed equally reducing binding by 47% (FIG. 53b).
The biotinylated HepB peptide was then incubated with a 5 fold excess of the unlabelled homocitrulline peptides. All peptides inhibited the binding of biotinylated Hep B to HLA-DP4 but to varying levels (FIG. 53c-e).

HLA transgenic mice = assay: T cell response to Hcit peptides in HLA transgenic mice (screening, ex vivo ELISpot); design: species or system mouse; settings: yes/no; Hcit peptide with CpG/MPLA
Experimental: as §1, §2, §3
(§4) Screening was performed to identify potential homocitrullinated ALDOA epitopes in transgenic HHDII/DP4 and HHDII/DR1 mice. Mice were immunised with pools of human homocitrullinated peptides. […] Each pool was administered as three immunisations containing 20 μg of each peptide and CpG/MPLA as an adjuvant. After 21 days the mice were culled and the immune responses to each peptide within the immunising pool were assessed by ex vivo ELISpot in HHDII/DP4 (FIG. 4b) and HHDII/DR1 mice (FIG. 4d).
as §4, with “Using this combination of predictions, 5 CyK8 peptides containing homocitrulline were synthesised (Table 4). Screening” for “Screening”, “Cyk8” for “ALDOA”, “HHDII/DP4.” for “HHDII/DP4 and HHDII/DR1 mice.”, “10a).” for “4b) and HHDII/DR1 mice (FIG. 4d).”

HLA-DP4 (human) = assay: DP4 competition ELISA; competitor biotinylated Hep B peptide; 5 fold excess of unlabelled peptide
[1] = 3 immunisations with CpG/MPLA, day 21

Molecule	T cell response (HLA transgenic mice)	% inhibition (HLA-DP4 (human)) [%]	other results
KVRFLEQQN-Hcit-LLAE [Vimentin 120-134 Hcit]	–	–	cross reactivity of vimentin 116-135 Hcit response to shorter Hcit peptide (HLA-DR4 mice): Cross reactivity was seen; cross reactivity of vimentin 116-135 Hcit response to shorter Hcit peptide (HLA-HHDII/DR1 mice): Cross reactivity was seen
NYIDKVRFLEQQNKILLAEL [Vim 116-135 WT, unmodified wild type vimentin 116-135 peptide, reference compound]	–	–	IFNγ ELISpot response (HLA-DR4 mice; [1]): failed to induce any responses; IFNγ ELISpot response (HLA-HHDII/DR1 mice; [1]): failed to induce any responses; anti-tumour response / survival vs control (B16F1 HHDII/DR1 tumours): did not show a significant anti-tumour response; % inhibition (HLA-DP4): 48%
QIDVDVS-Hcit-PDLTAALRDVRQQ [Vimentin 255-275 Hcit]	no	–	–
EAEEWY-Hcit-S-Hcit-FADLSEAAN [Vimentin 286-303 Hcit]	no	–	–
LPLVDTHS-Hcit-RTLL-Hcit-TVETRDGQV [Vimentin 431-454 Hcit]	no	–	–
LSDHHVYLEGTLL-hcit-PNMVT (LSDHHVYLEGTLL[hCit]PNMVT) [Aldolase A 217-235 Hcit]	no	–	% inhibition (HLA-DP4): 84%
hcit-CPLL-hcit-PWALTFSYGRALQ ([hCit]CPLL[hCit]PWALTFSYGRALQ) [Aldolase A 289-307 Hcit]	no	–	% inhibition (HLA-DP4): 45%
KFASFID[hCit]VRFLEQQN[hCit]MLE [Cytokeratin 8 101-120 Hcit]	–	71	–
LEQQN[hCit]MLET[hCit]WSLLQQQ[hCit]T [Cytokeratin 8 112-131 Hcit]	–	64	–
[hCit]LALDIEIATYR[hCit]LLEGEE [Cytokeratin 8 381-399 Hcit]	–	60	–
NYID[hCit]VRFLEQQN[hCit]ILLAEL [Vimentin 116-135 Hcit]	–	44	–
IGGVILFHETLYQ[hCit]ADDGRP [Aldolase A 74-93 Hcit]	–	69	–
[hCit]DGADFA[hCit]WRCVL[hCit]IGEH [Aldolase A 140-157 Hcit]	–	76	–
LSDHHVYLEGTLL[hCit]PNMVT [Aldolase A 217-235 Hcit]	–	84	–

Source: patent US12458688B2, “Epitopes” (Scancell Limited, priority 2018, dated 2025)
